Where “and” joins values, the source holds several entries; their conditions need not be identical. Equal values may be shown once.
Tested on: 186277-243-T-J2-PDC multi-cell spheroid viability
Assay: Anticancer human tumor 186277-243-T-J2-PDC patient-derived colon adenocarcinoma cell line growth inhibition [PI3K]
Conditions: for viability, T/C: stronger effect = lower value
Summary of the method: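 Spheroid viability read-out. Co-cultures contained the tumor line plus HUVEC and human MSCs. Each agent was paired with a PI3K inhibitor (inavolisib, alpelisib, duvelisib, copanlisib) across half-log dilutions starting at clinical Cmax, or at 10 microM when Cmax was unknown.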

[1] = curve of first compound, second compound 0.00316 µM
[2] = curve of first compound, second compound 0.01 µM
[3] = curve of first compound, second compound 0.0316 µM
[4] = curve of first compound, second compound 0.1 µM
[5] = curve of first compound, second compound 0.316 µM
[6] = curve of first compound, second compound 1 µM
[7] = second compound 0.0316 µM, first compound 0.0316 µM
[8] = second compound 0.0316 µM, first compound 0.1 µM
[9] = second compound 0.0316 µM, first compound 0.316 µM
[10] = second compound 0.0316 µM, first compound 1 µM
[11] = second compound 0.0316 µM, first compound 3.16 µM
[12] = second compound 0.0316 µM, first compound 10 µM
[13] = second compound 0.1 µM, first compound 0.0316 µM
[14] = second compound 0.1 µM, first compound 0.1 µM
[15] = second compound 0.1 µM, first compound 0.316 µM
[16] = second compound 0.1 µM, first compound 1 µM
[17] = second compound 0.1 µM, first compound 3.16 µM
[18] = second compound 0.1 µM, first compound 10 µM
[19] = second compound 0.316 µM, first compound 0.0316 µM
[20] = second compound 0.316 µM, first compound 0.1 µM
[21] = second compound 0.316 µM, first compound 0.316 µM
[22] = second compound 0.316 µM, first compound 1 µM
[23] = second compound 0.316 µM, first compound 3.16 µM
[24] = second compound 0.316 µM, first compound 10 µM
[25] = second compound 1 µM, first compound 0.0316 µM
[26] = second compound 1 µM, first compound 0.1 µM
[27] = second compound 1 µM, first compound 0.316 µM
[28] = second compound 1 µM, first compound 1 µM
[29] = second compound 1 µM, first compound 3.16 µM
[30] = second compound 1 µM, first compound 10 µM
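Further: spheroids exposed to compounds for seven days before viability reading.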
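Wherever viability, T/C is given: 100% = DMSO vehicle control viability.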

Cn1cnc2c(F)c(Nc3ccc(Br)cc3Cl)c(C(=O)NOCCO)cc21 + COc1c(OCCCN2CCOCC2)ccc2c3n(c(=NC(=O)c4cnc(N)nc4)nc12)CCN3
IC50 [1]: 73.9 nM
IC50 [2]: 29.9 nM
IC50 [3]: < 9.49 nM
IC50 [4]: < 9.49 nM
IC50 [5]: < 9.49 nM
IC50 [6]: < 9.49 nM
viability, T/C (second compound 0.00316 µM, first compound 0.00949 µM): 91.7%
viability, T/C (second compound 0.00316 µM, first compound 0.03 µM): 74.6%
viability, T/C (second compound 0.00316 µM, first compound 0.0949 µM): 38.3%
viability, T/C (second compound 0.00316 µM, first compound 0.3 µM): 28.9%
viability, T/C (second compound 0.00316 µM, first compound 0.949 µM): 13.1%
viability, T/C (second compound 0.00316 µM, first compound 3 µM): 7.3%
viability, T/C (second compound 0.01 µM, first compound 0.00949 µM): 81.6%
viability, T/C (second compound 0.01 µM, first compound 0.03 µM): 50%
viability, T/C (second compound 0.01 µM, first compound 0.0949 µM): 24.9%
viability, T/C (second compound 0.01 µM, first compound 0.3 µM): 11.7%
viability, T/C (second compound 0.01 µM, first compound 0.949 µM): 8.98%
viability, T/C (second compound 0.01 µM, first compound 3 µM): 5.03%
viability, T/C (second compound 0.0316 µM, first compound 0.00949 µM): 28.9%
viability, T/C (second compound 0.0316 µM, first compound 0.03 µM): 20.9%
viability, T/C (second compound 0.0316 µM, first compound 0.0949 µM): 13.5%
viability, T/C (second compound 0.0316 µM, first compound 0.3 µM): 8.43%
viability, T/C (second compound 0.0316 µM, first compound 0.949 µM): 3.94%
viability, T/C (second compound 0.0316 µM, first compound 3 µM): 2.23%
viability, T/C (second compound 0.1 µM, first compound 0.00949 µM): 14.6%
viability, T/C (second compound 0.1 µM, first compound 0.03 µM): 7.23%
viability, T/C (second compound 0.1 µM, first compound 0.0949 µM): 5.32%
viability, T/C (second compound 0.1 µM, first compound 0.3 µM): 2.22%
viability, T/C (second compound 0.1 µM, first compound 0.949 µM): 0.6%
viability, T/C (second compound 0.1 µM, first compound 3 µM): 0.24%
viability, T/C (second compound 0.316 µM, first compound 0.00949 µM): 2.44%
viability, T/C (second compound 0.316 µM, first compound 0.03 µM): 1.09%
viability, T/C (second compound 0.316 µM, first compound 0.0949 µM): 1.66%
viability, T/C (second compound 0.316 µM, first compound 0.3 µM): 0.37%
viability, T/C (second compound 0.316 µM, first compound 0.949 µM): 0.45%
viability, T/C (second compound 0.316 µM, first compound 3 µM): 0.11%
viability, T/C (second compound 1 µM, first compound 0.00949 µM): 0.41%
viability, T/C (second compound 1 µM, first compound 0.03 µM): 0.28%
viability, T/C (second compound 1 µM, first compound 0.0949 µM): 0.32%
viability, T/C (second compound 1 µM, first compound 0.3 µM): 0.14%
viability, T/C (second compound 1 µM, first compound 0.949 µM): 0.15%
viability, T/C (second compound 1 µM, first compound 3 µM): 0.18%

CC1(C)CCC(Nc2ncc(C(F)(F)F)c(-c3c[nH]c4c(P(C)(C)=O)c(C#N)ccc34)n2)CN1 (stereo not given)
viability, T/C (compound 0.0316 µM): 75.1% [middle of 4 runs]
viability, T/C (compound 0.1 µM): 55.2% [middle of 4 runs]
viability, T/C (compound 0.316 µM): 50.5% [middle of 4 runs]
viability, T/C (compound 1 µM): 59.2% [middle of 4 runs]
viability, T/C (compound 3.16 µM): 62.6% [middle of 4 runs]
viability, T/C (compound 10 µM): 0.77% [middle of 4 runs]
IC50 (curve of compound): 3.64 µM [middle of 4 runs]

CC(C)NCC(C(=O)N1CCN(c2ncnc3c2C(C)CC3O)CC1)c1ccc(Cl)cc1 (stereo not given)
viability, T/C (compound 0.0316 µM): 93.8% [middle of 4 runs]
viability, T/C (compound 0.1 µM): 88.2% [middle of 4 runs]
viability, T/C (compound 0.316 µM): 77.6% [middle of 4 runs]
viability, T/C (compound 1 µM): 55.6% [middle of 4 runs]
viability, T/C (compound 3.16 µM): 45.9% [middle of 4 runs]
viability, T/C (compound 10 µM): 28.2% (2×) and 31.3% and 28.7%
IC50 (curve of compound): 1.99 µM [middle of 4 runs]

C#Cc1c(F)ccc2cc(O)cc(-c3ncc4c(N5CC6CCC(C5)N6)nc(OCC56CCCN5CC(F)C6)nc4c3F)c12 (stereo not given) + COc1c(OCCCN2CCOCC2)ccc2c3n(c(=NC(=O)c4cnc(N)nc4)nc12)CCN3
IC50 [1]: 65.3 nM
IC50 [2]: < 31.6 nM
IC50 [3]: < 31.6 nM
IC50 [4]: < 31.6 nM
IC50 [5]: < 31.6 nM
IC50 [6]: < 31.6 nM
viability, T/C (second compound 0.00316 µM, first compound 0.0316 µM): 78.4%
viability, T/C (second compound 0.00316 µM, first compound 0.1 µM): 32.4%
viability, T/C (second compound 0.00316 µM, first compound 0.316 µM): 17.5%
viability, T/C (second compound 0.00316 µM, first compound 1 µM): 8.98%
viability, T/C (second compound 0.00316 µM, first compound 3.16 µM): 9.36%
viability, T/C (second compound 0.00316 µM, first compound 10 µM): 6.51%
viability, T/C (second compound 0.01 µM, first compound 0.0316 µM): 47.8%
viability, T/C (second compound 0.01 µM, first compound 0.1 µM): 20.9%
viability, T/C (second compound 0.01 µM, first compound 0.316 µM): 13.7%
viability, T/C (second compound 0.01 µM, first compound 1 µM): 10.1%
viability, T/C (second compound 0.01 µM, first compound 3.16 µM): 8.35%
viability, T/C (second compound 0.01 µM, first compound 10 µM): 5.59%
viability, T/C [7]: 16.9%
viability, T/C [8]: 7.55%
viability, T/C [9]: 10.6%
viability, T/C [10]: 3.62%
viability, T/C [11]: 3.8%
viability, T/C [12]: 4.03%
viability, T/C [13]: 5.72%
viability, T/C [14]: 4.46%
viability, T/C [15]: 3%
viability, T/C [16]: 3.2%
viability, T/C [17]: 1.5%
viability, T/C [18]: 0.18%
viability, T/C [19]: 3.44%
viability, T/C [20]: 0.58%
viability, T/C [21]: 0.7%
viability, T/C [22]: 0.32%
viability, T/C [23]: 0.85%
viability, T/C [24]: 0.1%
viability, T/C [25]: 0.56%
viability, T/C [26]: 0.38%
viability, T/C [27]: 0.53%
viability, T/C [28]: 0.17%
viability, T/C [29]: 0.22%
viability, T/C [30]: 0.16%

C=CC(=O)N1CCN(c2nc(=O)n(-c3c(C)ccnc3C(C)C)c3nc(-c4c(O)cccc4F)c(F)cc23)C(C)C1 (stereo not given) + CC(Nc1ncnc2nc[nH]c12)c1cc2cccc(Cl)c2c(=O)n1-c1ccccc1
IC50 [3]: > 10000 nM
IC50 [4]: > 10000 nM
IC50 [5]: > 10000 nM
IC50 [6]: > 10000 nM
IC50 (curve of first compound, second compound 3.16 µM): > 10000 nM
IC50 (curve of first compound, second compound 10 µM): > 10000 nM
viability, T/C [7]: 100%
viability, T/C [8]: 95.4%
viability, T/C [9]: 91.8%
viability, T/C [10]: 90.9%
viability, T/C [11]: 99.7%
viability, T/C [12]: 90.4%
viability, T/C [13]: 99%
viability, T/C [14]: 90.1%
viability, T/C [15]: 96.2%
viability, T/C [16]: 93.7%
viability, T/C [17]: 100%
viability, T/C [18]: 107%
viability, T/C [19]: 95.6%
viability, T/C [20]: 87.4%
viability, T/C [21]: 90%
viability, T/C [22]: 92.2%
viability, T/C [23]: 119%
viability, T/C [24]: 88.8%
viability, T/C [25]: 96.1%
viability, T/C [26]: 110%
viability, T/C [27]: 116%
viability, T/C [28]: 101%
viability, T/C [29]: 112%
viability, T/C [30]: 95%
viability, T/C (second compound 3.16 µM, first compound 0.0316 µM): 101%
viability, T/C (second compound 3.16 µM, first compound 0.1 µM): 91.1%
viability, T/C (second compound 3.16 µM, first compound 0.316 µM): 106%
viability, T/C (second compound 3.16 µM, first compound 1 µM): 101%
viability, T/C (second compound 3.16 µM, first compound 3.16 µM): 107%
viability, T/C (second compound 3.16 µM, first compound 10 µM): 92.3%
viability, T/C (second compound 10 µM, first compound 0.0316 µM): 93.9%
viability, T/C (second compound 10 µM, first compound 0.1 µM): 89%
viability, T/C (second compound 10 µM, first compound 0.316 µM): 93.6%
viability, T/C (second compound 10 µM, first compound 1 µM): 76.3%
viability, T/C (second compound 10 µM, first compound 3.16 µM): 87.5%
viability, T/C (second compound 10 µM, first compound 10 µM): 72.7%

From PubChem BioAssay AID1963983 (Molecular Pharmacology Branch, DTP, NCI, 2024)
